Test results as given in patent US9670223B2, “Compounds with super-aspirin effects” (SOLVOTRIN THERAPEUTICS LTD., priority 2011, dated 2017).

Experiments:
[1] = tested on: platelet rich plasma (PRP); test: Collagen-induced platelet aggregation in platelet rich plasma (light aggregometry); type: cell-based, human
Method: (§1) PRP and WP (2.5×10^8 platelets ml^−1) were prepared from blood. Briefly 36 ml whole blood was collected into 4 ml of 3.15% sodium citrate; this was centrifuged at 250 ¥g for 20 min (with gentle acceleration and deceleration). At this point PRP, which had separated from white blood cells and red blood cells, was gently removed. When WP were required this PRP was centrifuged at 700 g for 10 min (with gentle acceleration and deceleration) in the presence of prostacyclin. The platelet-poor plasma (PPP) was removed and the platelet pellet was washed three times with Tyrode's buffer, before being re-suspended in Tyrode's buffer to a concentration of 2.5 ¥108 platelets/ml.
(§2) Platelet aggregation was measured by light aggregometry. […] Aggregation was initiated by the addition of agonists, and monitored by Aggro-Link software for at least 6 min.
(§3) To study the aggregatory potency of ADP, the concentration-response (0.3-10 μM) curves were generated. Collagen at different concentrations (2-5 μg/ml) was also used to induce platelet aggregation. Submaximal concentrations of agonists, i.e. the concentrations that gave approximately 95% of the maximal aggregation were used to study the effects of inhibitors of aggregation. Aspirin and aspirin prodrugs was incubated for various intervals prior to the addition of aggregating agents.
(§4) Eserine (in DMSO, 10 μM, giving a final concentration≦0.25% DMSO, which pilot studies had determined not to affect platelet aggregation) was preincubated with PRP or WP for 5 min in the aggregometer with stirring at 900 r.p.m. before the addition of test compounds (ST0701-05), which were incubated in PRP or WP for a further 10 min prior to the addition of an agonist (10 μM ADP or 5 μg/ml Collagen) to induce platelet aggregation.

[2] = tested on: platelet rich plasma (PRP); test: ADP-induced platelet aggregation in PRP; type: cell-based, human; conditions: ADP 10 μM, PRP; for effect of ODQ pretreatment on inhibition of ADP induced aggregation: ODQ 10 μM, compounds 100 μM
Method: as §1, §2, §3, §4
1H-[1,2,4]Oxadiazolo[4,3-a]quinoxalin-1-one (ODQ, dissolved in 100% DMSO, used at a final concentration of 10 μM, which gave a final concentration not more than 0.25% DMSO) was preincubated with PRP or WP for 5 min in the aggregometer with stirring at 900 r.p.m. before the addition of test compounds (ST0701-05), which were incubated in PRP or WP for a further 10 min prior to the addition of an agonist (10 μM ADP or 5 μg/ml collagen) to induce platelet aggregation.
Eserine (10 μM) was incubated with PRP for 5 min in the aggregometer with stirring at 900 r.p.m. before the addition of test compound ST0702 salicylate (500 μM), which was incubated in PRP for a further 10 min prior to the addition of the agonist ADP (10 μM) to induce platelet aggregation.

[3] = GI tolerability testing: gastric ulcerogenic effect in rats; type: in vivo; conditions: rat, aspirin 30 mg/Kg daily or molar equivalent doses, oral gavage, 3 days
Method: In this study, rats are fed Aspirin 30 mg/Kg daily or molar equivalent doses of ISAS, ISANA (“Nicotinate”), ISANO “Meta” nitrate or ISAMNA in oral gavage daily for 3 days (n=3 per group). At the end of the dosing period, all animals were sacrificed, stomachs removed and were immersed in 2% formalin for at least 10 min to fix the gastric tissue wall, and will opened along the greater curvature for scoring for irritation or hemorrhagic lesions or ulcers developed in the corpus mucosa under a dissecting microscope on a 5-point scale. The percentage of stomach surface area showing ulcers was recorded for each animal and expressed as a percentage.

[4] = tested on: P-selectin; test: Flow cytometry of platelet P-selectin during TCIPA induced by 59M cells; type: cell-based, human; conditions: 300 μM
[5] = tested on: washed platelet samples; test: Arachidonic acid-induced platelet aggregation; type: cell-based, human; conditions: n=4
[6] = tested on: platelet rich plasma (PRP); test: Collagen-induced platelet aggregation in platelet rich plasma (light aggregometry); type: cell-based; conditions: Homo sapiens, collagen (5 µg/mL), values without †, read-out: IC50 (PRP, 95% CI)
[7] = tested on: CaCo2 cells; test: Tumour cell-induced platelet aggregation (TCIPA), static conditions, Caco-2
Method: Three human tumor cell lines, 59M ovarian adenocarcinoma, Caco-2 colon adenocarcinoma and HT1080 fibrocarcinoma cells, were obtained from the European Cell Culture Collection. Cell lines were cultured as monolayers in 75 ml culture flasks at 37° C. in a humidified atmosphere with 5% CO2. 59M cells and HT1080 were cultured in Dulbecco's […] (DMEM) supplemented with 10% fetal bovine serum (FBS) and gentamycin (0.05 mg/ml), penicillin (0.06 mg/ml), and streptomycin (0.01 mg/ml). Caco-2 cell line was cultured in Minimum Essential Medium (MEM) supplemented with 20% FBS and the same antibiotics as above. The cells were supplied with fresh medium and subcultured three times each week.
Washed platelet suspensions (2.5×10^11 platelets 1^−1) were prepared from blood an mixed with the anticoagulant sodium citrate (0.315% final concentration).
The interactions between platelets and tumor cells were measured by light aggregometry (Alonso-Escolano et al., 2004; Jurasz et al., 2001b; Radomski et al., 1991). […] TCIPA was initiated by the addition of cancer cells, and monitored by Aggro-Link software for at least 30 min. […]
To study whether or not aspirin prodrugs had any direct effect on tumour cells, nictoinate was preincubated with different cell lines and added to the platelet suspension. TCIPA was monitored for at least 30 min.

[8] = 200 μM in PRP, collagen 5 μg/ml

Row | Structure (SMILES) | effect of eserine on inhibition of collagen-induced aggregation in PRP ([1]; compounds 300 μM, physostigmine (eserine) 10 μM) | inhibition of ADP (10 μM) induced aggregation in PRP, comparison in words [2] | effect of ODQ pretreatment on inhibition of ADP induced aggregation [2] | gastric ulcerogenic effect [3] | 59M-mediated increase in platelet surface P-selectin [4] | effect on arachidonic acid (100 μM)-induced aggregation [5] | IC50 [6] [µM] | inhibition of aggregation following 0-5 min preincubation [1, 8] | preincubation time at which inhibition is maximal [1, 8] [min] | effect on TCIPA when tumour cells were preincubated with compound ([7]; Caco2 cells preincubated) | inhibition of TCIPA induced by Caco-2 ([7]; static, WP, 300 and 500 μM, CaCo2 1.5×10^3/ml)
1 | CC(=O)Oc1ccccc1C(=O)O [Aspirin] | did not exert significant effects | consistently less inhibition of aggregation than ST0701/02 | increased the inhibition | significant gastric ulcerogenic effect | failed to prevent | abolished | 90 |  |  |  | 
2 | CC(=O)Oc1ccccc1C(=O)O[C@H]1CO[C@H]2[C@@H]1OC[C@H]2OC(=O)c1cccnc1 [ST0702, isosorbide-2-aspirinate-5-nicotinate] |  | more efficacious than aspirin | increased the inhibition |  | significantly (P<0.01, n=4) inhibited |  |  | No significant inhibition | 15 to 20 | no effect on TCIPA | consistently inhibited TCIPA
